Data on 4 compounds can be found in PMC8550792, “Evolution of kinase polypharmacology across HSP90 drug discovery” (Cell Chemical Biology, 2021).

Where two headings read alike, the source gives them in different places.

Common to all, as to experiment: biochemical
Type in all cases: biochemical

The target of experiment [1] is T1, 382 unique human kinases (Homo sapiens, UniProt P37173).
T1 construct: purchased Reaction Biology (HotSpot contract assay)
To be noted: kinase TGFBR2, compound 10 uM; for remaining activity at 10 µM: read-out: % Enzyme Activity (relative to DMSO controls).

For experiment [2], the target named is T2, 382 unique human kinases (Homo sapiens, UniProt Q02750).
T2 construct: purchased Reaction Biology (HotSpot contract assay)
T2 sequence (Q02750 whole entry): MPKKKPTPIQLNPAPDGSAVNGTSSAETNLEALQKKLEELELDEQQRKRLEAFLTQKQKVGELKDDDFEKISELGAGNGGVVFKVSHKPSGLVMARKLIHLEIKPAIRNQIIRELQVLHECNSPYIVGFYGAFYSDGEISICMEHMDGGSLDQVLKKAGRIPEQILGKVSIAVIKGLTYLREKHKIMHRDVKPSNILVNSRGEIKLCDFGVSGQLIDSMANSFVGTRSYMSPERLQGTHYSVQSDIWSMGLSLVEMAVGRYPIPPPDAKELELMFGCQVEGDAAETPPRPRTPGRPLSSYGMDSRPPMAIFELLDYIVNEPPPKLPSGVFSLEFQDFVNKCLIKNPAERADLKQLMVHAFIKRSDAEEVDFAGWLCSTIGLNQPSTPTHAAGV
The settings on record: kinase MEK1, compound 10 uM; for remaining activity at 10 µM: read-out: % Enzyme Activity (relative to DMSO controls).

The target in experiment [3] is T3, 382 unique human kinases (Homo sapiens, UniProt Q15831).
T3 construct: purchased Reaction Biology (HotSpot contract assay)
T3 sequence (Q15831 1-433): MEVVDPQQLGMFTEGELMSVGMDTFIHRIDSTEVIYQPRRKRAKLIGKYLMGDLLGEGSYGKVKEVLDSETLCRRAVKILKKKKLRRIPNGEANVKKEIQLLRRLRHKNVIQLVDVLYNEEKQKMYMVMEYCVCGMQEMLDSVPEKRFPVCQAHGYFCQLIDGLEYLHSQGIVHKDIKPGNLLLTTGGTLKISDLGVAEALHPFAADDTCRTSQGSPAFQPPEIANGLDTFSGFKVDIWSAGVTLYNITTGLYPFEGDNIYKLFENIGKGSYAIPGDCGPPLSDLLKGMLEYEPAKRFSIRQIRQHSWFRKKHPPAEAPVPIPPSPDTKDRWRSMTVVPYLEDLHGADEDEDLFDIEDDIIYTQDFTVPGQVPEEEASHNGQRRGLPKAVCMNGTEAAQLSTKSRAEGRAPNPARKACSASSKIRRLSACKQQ
The settings on record: LKB1, compound at 10 uM, duplicate values; for remaining activity at 10 µM: read-out: % Enzyme Activity (relative to DMSO controls).

Experiment [4] concerns the target T4, 382 unique human kinases (Homo sapiens, UniProt Q96PN8).
T4 construct: purchased Reaction Biology (HotSpot contract assay)
T4 sequence (Q96PN8 1-268): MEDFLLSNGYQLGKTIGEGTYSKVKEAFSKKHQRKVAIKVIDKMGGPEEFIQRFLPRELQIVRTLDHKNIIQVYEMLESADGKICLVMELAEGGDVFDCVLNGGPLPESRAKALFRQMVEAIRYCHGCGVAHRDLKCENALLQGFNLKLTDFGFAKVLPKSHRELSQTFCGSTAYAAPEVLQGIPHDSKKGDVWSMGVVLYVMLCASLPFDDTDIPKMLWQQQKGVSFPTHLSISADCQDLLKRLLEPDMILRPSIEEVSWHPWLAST
To be noted: kinase TSSK3/STK22C, compound 10 uM; for remaining activity at 10 µM: read-out: % Enzyme Activity (relative to DMSO controls).

Experiment [5] concerns the target T5, 382 unique human kinases (Homo sapiens, UniProt Q9UM73, R1275Q).
T5 construct: purchased Reaction Biology (HotSpot contract assay)
To be noted: ALK (R1275Q), 10 uM; for remaining activity at 10 µM: read-out: % Enzyme Activity (relative to DMSO controls).

The target in experiment [6] is T6, 382 unique human kinases (Homo sapiens, UniProt O15530).
T6 construct: purchased Reaction Biology (HotSpot contract assay)
T6 sequence (O15530 1-556): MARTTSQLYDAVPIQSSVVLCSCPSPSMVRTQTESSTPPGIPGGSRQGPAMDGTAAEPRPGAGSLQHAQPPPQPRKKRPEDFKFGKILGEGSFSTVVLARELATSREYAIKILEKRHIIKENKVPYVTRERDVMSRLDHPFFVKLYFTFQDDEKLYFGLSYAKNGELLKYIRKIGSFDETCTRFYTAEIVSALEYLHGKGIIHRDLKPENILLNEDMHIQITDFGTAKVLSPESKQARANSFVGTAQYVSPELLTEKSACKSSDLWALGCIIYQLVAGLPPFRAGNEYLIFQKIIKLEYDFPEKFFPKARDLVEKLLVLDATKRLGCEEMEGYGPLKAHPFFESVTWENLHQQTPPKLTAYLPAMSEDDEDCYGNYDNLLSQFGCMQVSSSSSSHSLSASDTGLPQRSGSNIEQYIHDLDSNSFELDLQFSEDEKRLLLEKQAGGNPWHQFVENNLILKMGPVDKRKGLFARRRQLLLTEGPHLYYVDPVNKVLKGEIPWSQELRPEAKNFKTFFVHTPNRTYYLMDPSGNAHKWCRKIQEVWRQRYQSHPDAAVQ
To be noted: PDK1/PDPK1, 10 uM; for remaining activity at 10 µM: read-out: % Enzyme Activity (relative to DMSO controls).

Experiment [7] addresses T7, 382 unique human kinases (Homo sapiens, UniProt P07949, V778I).
T7 construct: purchased Reaction Biology (HotSpot contract assay)
To be noted: RET (V778I), [ATP] 10 µM, compound 10 uM; for remaining activity at 10 µM: read-out: % Enzyme Activity (relative to DMSO controls).

Experiment [8] has as its target T8, 382 unique human kinases (Homo sapiens, UniProt P07949, Y791F).
T8 construct: purchased Reaction Biology (HotSpot contract assay)
The settings on record: [ATP] 15 µM, compound 10 uM, read-out: % Enzyme Activity (relative to DMSO controls).

The target of experiment [9] is T9, 382 unique human kinases (Homo sapiens, UniProt P08581, M1250T).
T9 construct: purchased Reaction Biology (HotSpot contract assay)
The settings on record: c-MET (M1250T), 10 uM; for remaining activity at 10 µM: read-out: % Enzyme Activity (relative to DMSO controls).

For experiment [10], the target named is T10, 382 unique human kinases (Homo sapiens, UniProt Q13976).
T10 construct: purchased Reaction Biology (HotSpot contract assay)
T10 sequence (Q13976 1-671): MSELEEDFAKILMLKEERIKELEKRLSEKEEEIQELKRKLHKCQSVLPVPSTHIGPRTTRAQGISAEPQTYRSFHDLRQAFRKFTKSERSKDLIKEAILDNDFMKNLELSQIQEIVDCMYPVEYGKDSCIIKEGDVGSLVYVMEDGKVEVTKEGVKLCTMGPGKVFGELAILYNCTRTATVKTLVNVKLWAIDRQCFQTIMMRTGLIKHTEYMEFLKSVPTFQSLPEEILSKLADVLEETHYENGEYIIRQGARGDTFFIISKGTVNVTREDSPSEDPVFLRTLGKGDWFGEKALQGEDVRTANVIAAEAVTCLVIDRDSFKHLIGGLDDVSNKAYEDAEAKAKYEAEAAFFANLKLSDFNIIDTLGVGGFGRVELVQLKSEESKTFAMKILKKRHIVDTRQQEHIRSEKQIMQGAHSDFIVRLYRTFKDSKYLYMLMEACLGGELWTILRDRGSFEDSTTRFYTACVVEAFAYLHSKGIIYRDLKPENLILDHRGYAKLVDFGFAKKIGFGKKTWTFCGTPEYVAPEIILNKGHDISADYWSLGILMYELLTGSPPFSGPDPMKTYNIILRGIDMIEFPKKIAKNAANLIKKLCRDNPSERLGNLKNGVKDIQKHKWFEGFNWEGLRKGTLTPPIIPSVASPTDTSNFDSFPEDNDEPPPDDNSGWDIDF
To be noted: PKG1a, 10 uM; for remaining activity at 10 µM: read-out: % Enzyme Activity (relative to DMSO controls).

T8 sequence (P07949 29-1114 Y791F): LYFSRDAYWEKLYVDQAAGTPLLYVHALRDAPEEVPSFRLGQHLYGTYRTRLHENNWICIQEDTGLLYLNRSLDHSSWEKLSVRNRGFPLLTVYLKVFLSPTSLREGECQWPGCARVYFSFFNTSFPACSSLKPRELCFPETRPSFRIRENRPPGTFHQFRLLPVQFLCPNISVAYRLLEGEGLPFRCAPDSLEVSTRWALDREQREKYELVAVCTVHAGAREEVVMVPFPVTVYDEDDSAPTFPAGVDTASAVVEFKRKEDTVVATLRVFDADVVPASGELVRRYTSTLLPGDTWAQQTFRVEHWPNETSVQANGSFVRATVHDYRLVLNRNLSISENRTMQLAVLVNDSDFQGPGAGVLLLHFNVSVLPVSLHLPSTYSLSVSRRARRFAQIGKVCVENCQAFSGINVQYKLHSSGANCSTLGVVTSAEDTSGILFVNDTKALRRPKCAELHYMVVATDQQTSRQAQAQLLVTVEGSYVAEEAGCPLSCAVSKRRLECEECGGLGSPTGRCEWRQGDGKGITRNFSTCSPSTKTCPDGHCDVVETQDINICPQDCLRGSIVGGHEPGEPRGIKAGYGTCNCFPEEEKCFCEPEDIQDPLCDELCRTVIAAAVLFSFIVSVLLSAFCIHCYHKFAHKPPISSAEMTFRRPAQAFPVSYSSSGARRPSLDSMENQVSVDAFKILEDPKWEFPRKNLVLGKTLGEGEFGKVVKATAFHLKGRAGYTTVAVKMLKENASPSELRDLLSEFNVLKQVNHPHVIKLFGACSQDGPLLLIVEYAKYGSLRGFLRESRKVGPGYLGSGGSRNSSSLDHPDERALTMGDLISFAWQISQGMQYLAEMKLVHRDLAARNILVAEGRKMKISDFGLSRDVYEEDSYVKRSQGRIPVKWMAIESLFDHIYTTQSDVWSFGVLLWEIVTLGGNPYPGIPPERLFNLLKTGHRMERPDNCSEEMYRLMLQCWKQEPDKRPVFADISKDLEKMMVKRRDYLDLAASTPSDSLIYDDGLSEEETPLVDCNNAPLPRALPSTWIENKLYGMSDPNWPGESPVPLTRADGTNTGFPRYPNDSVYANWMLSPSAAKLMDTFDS
T1 sequence (P37173 23-567): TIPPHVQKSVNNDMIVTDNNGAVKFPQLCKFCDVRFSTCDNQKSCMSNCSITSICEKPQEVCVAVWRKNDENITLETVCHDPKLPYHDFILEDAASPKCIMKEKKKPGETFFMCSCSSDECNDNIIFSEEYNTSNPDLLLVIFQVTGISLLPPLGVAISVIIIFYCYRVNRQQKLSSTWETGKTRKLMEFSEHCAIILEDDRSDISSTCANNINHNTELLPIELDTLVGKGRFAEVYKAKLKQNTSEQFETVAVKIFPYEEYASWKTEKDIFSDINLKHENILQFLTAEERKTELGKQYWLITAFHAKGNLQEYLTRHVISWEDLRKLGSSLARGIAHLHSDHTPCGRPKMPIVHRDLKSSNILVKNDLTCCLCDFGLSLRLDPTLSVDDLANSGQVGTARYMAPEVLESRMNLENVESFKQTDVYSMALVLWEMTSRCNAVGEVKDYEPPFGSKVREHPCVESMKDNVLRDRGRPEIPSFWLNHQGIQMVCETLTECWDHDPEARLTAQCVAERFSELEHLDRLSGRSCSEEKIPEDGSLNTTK
T7 sequence (P07949 29-1114 V778I): as the sequence (P07949 29-1114 Y791F) above, with V750I, F763Y counted along it
T5 sequence (Q9UM73 19-1620 R1275Q): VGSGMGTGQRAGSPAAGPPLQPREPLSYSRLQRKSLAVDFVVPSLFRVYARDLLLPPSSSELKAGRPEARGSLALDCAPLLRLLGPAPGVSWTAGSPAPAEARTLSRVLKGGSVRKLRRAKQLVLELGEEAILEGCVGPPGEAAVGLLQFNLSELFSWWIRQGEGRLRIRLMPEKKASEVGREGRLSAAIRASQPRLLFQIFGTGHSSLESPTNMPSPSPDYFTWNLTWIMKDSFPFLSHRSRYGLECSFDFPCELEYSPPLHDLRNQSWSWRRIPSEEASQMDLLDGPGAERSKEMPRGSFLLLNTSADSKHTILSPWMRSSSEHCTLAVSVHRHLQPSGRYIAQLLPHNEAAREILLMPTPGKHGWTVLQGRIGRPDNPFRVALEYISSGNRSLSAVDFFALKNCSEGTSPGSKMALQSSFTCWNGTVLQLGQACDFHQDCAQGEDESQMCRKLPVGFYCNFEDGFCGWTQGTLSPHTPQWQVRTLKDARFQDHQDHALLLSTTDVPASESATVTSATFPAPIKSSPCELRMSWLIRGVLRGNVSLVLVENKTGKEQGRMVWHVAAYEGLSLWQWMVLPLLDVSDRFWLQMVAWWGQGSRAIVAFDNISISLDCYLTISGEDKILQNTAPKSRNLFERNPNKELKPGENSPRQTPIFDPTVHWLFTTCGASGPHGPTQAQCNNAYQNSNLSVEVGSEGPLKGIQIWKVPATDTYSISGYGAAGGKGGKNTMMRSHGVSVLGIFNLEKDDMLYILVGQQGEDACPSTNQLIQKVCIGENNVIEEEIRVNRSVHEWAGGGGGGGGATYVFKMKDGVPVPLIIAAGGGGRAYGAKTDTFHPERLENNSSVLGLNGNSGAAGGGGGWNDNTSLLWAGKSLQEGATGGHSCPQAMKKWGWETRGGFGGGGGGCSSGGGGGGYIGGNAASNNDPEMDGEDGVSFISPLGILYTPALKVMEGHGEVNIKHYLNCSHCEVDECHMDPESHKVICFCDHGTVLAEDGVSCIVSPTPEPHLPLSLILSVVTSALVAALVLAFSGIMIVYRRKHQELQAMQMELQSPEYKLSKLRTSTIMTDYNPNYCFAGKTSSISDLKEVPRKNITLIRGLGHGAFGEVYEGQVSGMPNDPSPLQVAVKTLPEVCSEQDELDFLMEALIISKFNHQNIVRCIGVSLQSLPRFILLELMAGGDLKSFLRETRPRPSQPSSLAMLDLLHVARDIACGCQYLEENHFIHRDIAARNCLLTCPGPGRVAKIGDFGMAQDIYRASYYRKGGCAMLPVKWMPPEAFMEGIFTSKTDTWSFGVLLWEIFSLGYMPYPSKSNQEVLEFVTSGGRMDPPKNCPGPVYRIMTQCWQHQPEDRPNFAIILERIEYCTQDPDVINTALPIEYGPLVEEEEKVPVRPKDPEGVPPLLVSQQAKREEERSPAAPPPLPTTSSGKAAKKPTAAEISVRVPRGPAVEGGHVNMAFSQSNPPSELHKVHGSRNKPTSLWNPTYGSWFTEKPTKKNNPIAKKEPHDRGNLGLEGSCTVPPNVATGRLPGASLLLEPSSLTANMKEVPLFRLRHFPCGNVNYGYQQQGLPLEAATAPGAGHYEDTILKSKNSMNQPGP

Regarding `CC(C)c1cc(-c2n[nH]c(=O)n2-c2ccc3c(ccn3C)c2)c(O)cc1O` [Ganetespib (STA9090)], the remaining activity at 10 µM in [1] turned out to be 92.9%; in experiment [2] it was 90.3%; in experiment [3], 110%; in experiment [4], 93.1%; in [5], 65.1%.

Regarding `CC(C)c1cc(-c2n[nH]c(=O)n2-c2ccc3c(ccn3C)c2)c(O)cc1O` [Ganetespib], the remaining activity at 10 µM worked out at 99.4% in experiment [6]; 56.4% in experiment [7]; 60.9% in experiment [8] (RET (Y791F)); 99.8% in [9]; 90.9% in experiment [10].

Take `CCNC(=O)c1noc(-c2cc(C(C)C)c(O)cc2O)c1-c1ccc(CN2CCOCC2)cc1` [Luminespib (AUY-922)]: the “% Enzyme Activity (relative to DMSO controls)” value in experiment [1] came to 124.56%; in [2], 95.75%; in experiment [3], 103.13%; in [4] it was 144.69%; in [5] it was 101.49%. Besides, the remaining activity at 10 µM is 129% in experiment [1]; 95.8% in experiment [2]; 106% in experiment [3]; 147% in experiment [4]; 102% in experiment [5].

Turning to `CCNC(=O)c1noc(-c2cc(C(C)C)c(O)cc2O)c1-c1ccc(CN2CCOCC2)cc1` [Luminespib], the “% Enzyme Activity (relative to DMSO controls)” value in experiment [6] turned out to be 101.64%; in [7], 105.36%; in experiment [9], 112.05%; in [10] it was 92.81%. For the same compound, the remaining activity at 10 µM is 102% in [6]; 111% in experiment [7]; 100% in experiment [8] (RET (Y791F)); 99.9% in experiment [8] ([…]); 113% in [9]; 95.7% in experiment [10].
